Two molecules from patent US20100004159A1, “SUBSTITUTED IMIDAZOLONE DERIVATIVES, PREPARATIONS AND USES” (GENFIT, priority 2006, published 2010) can be followed below.

One series relates to ApoE2/E2 mouse. Nature of the series: Plasma lipids and cholesterol distribution in dyslipidemic ApoE2/E2 mouse. The class given is in vivo. The following applies: for total cholesterol level / triglyceride level: 7 days per os. How it is done: The hypolipemic properties of the compounds according to the invention were evaluated in vivo by assaying plasma lipids and by an analysis of the gene expression of PPARs target genes, in the liver after a treatment of the dyslipidemic E2/E2 mice with the compounds according to the invention.
The murine model used is the ApoE2/E2 mouse, a transgenic mouse having human apolipoprotein E isoform E2 (Sullivan P M et al., 1998). In human, this apolipoprotein, a constituent of the low and the very low density lipoproteins (LDL-VLDL), exists in three isoforms E2, E3, and E4. The E2 form has a mutation affecting the amino acid of position 158, which considerably weakens the affinity of this protein for the receptors to LDL., the VLDL clearance is nearly non-existent.
The ApoE2/E2 transgenic mice were kept on a 12 hour/12 hour light/dark cycle at a constant temperature of 20±3° C. After a one week acclimatization period, the mice were weighed and divided into groups of 5 animals selected so as to render uniform the distribution of their body weights and their plasma lipid levels, determined before the experiment. The tested compounds were suspended in carboxymethylcellulose (Sigma C4888) and administered by intra-gastric tube feeding, once a day for 7 days at the chosen dose. The animals had free access to food and water. At the end of the experiment, the animals were anesthetized after a 4 hour fast, a blood sample was taken using anticoagulant (EDTA), then the mice were weighed and euthanized. The plasma was separated by centrifugation at 3000 rotations/minute for 20 minutes. The samples were kept at +4° C.
Plasma lipid concentrations (total cholesterol and triglycerides) were measured by enzymatic assays (bioMerieux-Lyon-France) according to the provider's recommendations.
The different lipid fractions (VLDL, LDL,HDL) of the plasma were separated by gel-filtration chromatography. The concentrations of cholesterol of each fraction were then measured by enzymatic assays (bioMerieux-Lyon-France) according to the provider's recommendations.

The subject of series [1] is SHR rats (spontaneous hypertensive rats). Nature of the series: SHR rats treated 14 days: plasma triglycerides, arterial pressure, response to angiotensin II. The class given is in vivo, rat. How it is done:
SHR rats (spontaneous hypertensive rats) (male sex—300-320 g—16-weeks old—Charles River France) were kept on a light/dark cycle of 12/12 hours at a constant temperature of 20±3° C. The compounds according to the invention being tested were suspended in carboxymethylcellulose (Sigma c4888) and administered to the animals by intra-gastric gavage, once a day for 14 days at the chosen doses. The animals had free access to food and water.
At the end of the experiment, after a 5-hour fast, the animals were anesthetized for surgery with pentobarbital (50 mg/kg). A catheter treated with heparin was placed in the carotid artery to measure arterial pressure. A second catheter was placed in the jugular vein to administer angiotensin II. Arterial pressure was measured and recorded at basal tone for 15 minutes. At this stage, the average arterial pressure of the control animals is compared to that of the animals having received the compounds according to the invention. After 15 minutes, three successive intravenous administrations of angiotensin II (50 ng/kg) were performed to evaluate the response to angiotensin II of animals treated with the compounds according to the invention.
At the end of the arterial pressure measurements, a blood sample was taken using anticoagulant (EDTA), then the animals were euthanized. The plasma was separated by centrifugation at 3000 rotations/minute for 20 minutes. The samples were kept at +4° C.
Plasma total concentrations of cholesterol, triglycerides, free fatty acids, and glucose were measured by enzymatic assays (bioMerieux-Lyon-France and Wako-Japan) according to the provider's recommendations.

The target of the next series is T1, hPPARα (Homo sapiens, UniProt Q07869).
T1 construct: DNA fragments amplified by PCR and corresponding to the DEF domains of human PPARα, PPARγ, and PPARδ nuclear receptors; expressed in transfected cells; host or cells: COS-7
T1 sequence (Q07869 239-466 limits assumed): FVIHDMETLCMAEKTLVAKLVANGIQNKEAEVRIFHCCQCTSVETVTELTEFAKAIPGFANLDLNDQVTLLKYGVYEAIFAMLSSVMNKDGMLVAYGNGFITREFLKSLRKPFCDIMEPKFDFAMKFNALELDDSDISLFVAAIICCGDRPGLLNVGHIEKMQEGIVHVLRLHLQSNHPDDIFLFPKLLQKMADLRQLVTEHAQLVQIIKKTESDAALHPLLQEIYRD
In words: Gal4-hPPARα transactivation in COS-7 cells (luciferase). The class given is cell-based. To be noted: for EC50: Gal4-hPPARα chimera, COS-7 cells, 24 hours. How it is done:
The activation of PPARs was evaluated in vitro using a monkey kidney fibroblast line (COS-7) by measuring the transcriptional activity of chimeras made up of the DNA binding domain of the Gal4 transcription factor of yeast and of the binding domain to the ligand of the different PPARs. The compounds were tested at doses of between 0.01 and 100 μM on Gal4-PPARα, γ, and δ chimeras.
COS-7 cells came from ATCC (American type culture collection) and were cultivated in a DMEM medium supplemented with 10% (vol/vol) of fetal calf serum, 100 U/ml of penicillin (Gibco, Paisley, UK) and 2 mM of L-Glutamine (Gibco, Paisley, UK). The cells were incubated at 37° C. under humid atmosphere containing 5% CO2.
The plasmids Gal4(RE)_TkpGL3, pGal4-hPPARα, pGal4-hPPARγ, pGal4-hPPARδ and pGal4-φ have been described in the literature (Raspe E et al., 1999). The constructions pGal4-hPPARα, pGal4-hPPARγ, and pGal4-hPPARδ were obtained by cloning, in the pGal4-φ vector, DNA fragments amplified by PCR and corresponding to the DEF domains of human PPARα, PPARγ, and PPARδ nuclear receptors.
The COS-7 cells in suspension were transfected with 150 ng of DNA per well, with a pGal4-PPAR/Gal4(RE)_TkpGL3 ratio of 1/10, in presence of 10% fetal calf serum. The cells were then plated in 96-well plates (4×10^4 cells/well), then incubated for 24 hours at 37° C. Activation with the test compounds was performed for 24 hours at 37° C. in a medium without serum. At the end of the experiment, the cells were lysed and the luciferase activity was determined using the Steady-Lite™ HTS (Perkin Elmert) or the Steady Glow Luciferase kit (Promega), in accordance with the provider's recommendations.
The compounds according to the invention were tested at doses between 0,01 and 100 μM on the 3 PPAR isoforms. The results obtained are presented in detail under FIG. 1a.

Setting [2] is: 7-day treatment, 10, 30 and 100 mpk.

As for `CCCCC1=NC2(CCCCC2)C(=O)N1Cc1ccc(-c2cccc(OC(C)(C)C(=O)O)c2)cc1` [Compound 21, 2-butyl-1-[(3′-((1-carboxy-1,1-dimethylmethyl)oxy)biphenyl-4-yl)methyl]-4-spirocyclohexyl-1H-imidazol-5(4H)-one], the melting point lay in the range of 160 to 162 °C. For the same molecule, in the series with ApoE2/E2 mouse (setting [2]), the HDL-cholesterol fraction entry is listed as “significant increase”; the “cholesterol in VLDL and LDL fractions” value was “significant decrease”. In the series with ApoE2/E2 mouse (10, 30 or 100 mpk), the total cholesterol level result was “remarkable dose-dependently decrease” and the triglyceride level result is “remarkable dose-dependently decrease”. In addition, the “hypertension induced by angiotensin II (difference of arterial pressure)” value in series [1] (chronic treatment, 100 mpk, repeated administrations of angiotensin II) is on record as “significant antagonist effect on angiotensin II”. This molecule registered an EC50 at hPPARα of 600 nM.

For `CCCCC1=NC2(CCCC2)C(=O)N1Cc1ccc(-c2cccc(OC(C)(C)C(=O)O)c2)cc1` [Compound 1, 2-butyl-1-[(3′-((1-carboxy-1,1-dimethylmethyl)oxy)biphenyl-4-yl)methyl]-4-spirocyclopentyl-1H-imidazol-5(4H)-one], the melting point fell in the range of 169 to 171 °C. Further, in the series on ApoE2/E2 mouse (25, 50, 100 and 200 mpk), the total cholesterol level entry is listed as “remarkable dose-dependently decrease” and the triglyceride level entry was “remarkable dose-dependently decrease”. In addition, the “arterial pressure before administrations of angiotensin II” value in series [1] (14 days of treatment, 150 mpk) was “antihypertensive effect”. Moreover, the plasma triglyceride rate entry in series [1] (14 days of treatment, 150 mpk, intra-gastric) is given as “unexpectedly decreased”. For the same molecule, the “hypertension induced by angiotensin II (difference of arterial pressure)” value in series [1] (14 days of treatment, 150 mpk, three intravenous administrations of angiotensin II 50 ng/kg) was “significant antagonist effect on angiotensin II”. In addition, the “activation of hPPARα (luciferase activity)” value at hPPARα (COS-7 cells transfected pGal4-hPPAR, 0.01 to 100 μM) is reported as “activate the two PPAR isoforms”. Also, a half-maximal effect on hPPARα (EC50) was put at 3000 nM.
